The test addresses XOD (xanthine oxidase) enzyme (Sigma, derived from milk) (Bos taurus, UniProt P80457). Nature of the test: XOD enzyme activity inhibition (XOD enzyme activity detection kit, uric acid absorption at 295 nm). Particulars: for IC50: half-inhibitory concentration on XOD; for XOD enzyme activity inhibition: concentration three times the half-inhibitory concentration.

No end group written: not given here.

Sequence of XOD (xanthine oxidase) enzyme (Sigma, derived from milk) (P80457 whole entry): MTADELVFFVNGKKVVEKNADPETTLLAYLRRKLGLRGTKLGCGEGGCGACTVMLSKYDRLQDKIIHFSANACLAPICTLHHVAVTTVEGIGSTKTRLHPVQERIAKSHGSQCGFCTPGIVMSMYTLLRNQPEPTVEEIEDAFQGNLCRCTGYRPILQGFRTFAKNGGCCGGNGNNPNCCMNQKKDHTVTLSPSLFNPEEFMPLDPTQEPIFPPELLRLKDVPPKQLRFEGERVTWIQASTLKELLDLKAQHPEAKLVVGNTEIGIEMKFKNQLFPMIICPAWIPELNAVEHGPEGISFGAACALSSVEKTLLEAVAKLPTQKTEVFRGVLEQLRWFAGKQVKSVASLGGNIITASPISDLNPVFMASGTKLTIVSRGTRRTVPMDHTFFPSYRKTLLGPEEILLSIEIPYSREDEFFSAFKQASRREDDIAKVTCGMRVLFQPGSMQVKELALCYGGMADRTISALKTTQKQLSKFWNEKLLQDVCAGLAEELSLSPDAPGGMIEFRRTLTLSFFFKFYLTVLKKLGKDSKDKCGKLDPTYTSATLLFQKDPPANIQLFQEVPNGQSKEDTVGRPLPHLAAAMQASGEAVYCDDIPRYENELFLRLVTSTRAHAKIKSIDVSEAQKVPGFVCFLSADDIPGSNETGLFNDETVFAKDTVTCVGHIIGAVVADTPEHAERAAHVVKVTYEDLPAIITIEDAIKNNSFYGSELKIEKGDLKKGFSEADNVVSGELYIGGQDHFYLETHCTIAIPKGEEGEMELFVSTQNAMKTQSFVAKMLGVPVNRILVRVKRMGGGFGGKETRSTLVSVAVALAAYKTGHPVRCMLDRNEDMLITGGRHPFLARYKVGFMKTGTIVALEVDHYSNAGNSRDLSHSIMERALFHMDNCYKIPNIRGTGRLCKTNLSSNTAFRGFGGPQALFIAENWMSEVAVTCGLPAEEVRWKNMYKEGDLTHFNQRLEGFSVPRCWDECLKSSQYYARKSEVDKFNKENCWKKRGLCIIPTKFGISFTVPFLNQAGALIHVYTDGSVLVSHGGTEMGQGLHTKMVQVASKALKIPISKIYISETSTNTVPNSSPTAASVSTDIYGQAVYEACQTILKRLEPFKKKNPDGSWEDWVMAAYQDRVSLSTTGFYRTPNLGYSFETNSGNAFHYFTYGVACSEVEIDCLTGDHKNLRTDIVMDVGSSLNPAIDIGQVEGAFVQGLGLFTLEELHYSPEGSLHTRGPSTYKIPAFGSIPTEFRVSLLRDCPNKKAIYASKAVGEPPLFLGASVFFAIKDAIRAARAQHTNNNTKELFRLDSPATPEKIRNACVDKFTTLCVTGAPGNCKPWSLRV

Consider `Oc1ncnc2[nH]ncc12` [Allopurinol, reference compound], for which the “XOD enzyme activity retained” value (concentration 30 μg/mL) is recorded as “about 10%”. For the setting “read-out: XOD activity (%)”, the activity at 0.2 µg/mL is 59.4%, the activity at 0.4 µg/mL came to 34.7% and the activity at 0.8 µg/mL was determined as 31.2%.

For DNLPPLPK [Peptide S4], the “XOD enzyme activity inhibition” value is “completely inhibited” and the IC50 is 6.72e-05 M. Also, where the note is “IC50(M), Table 5, molar”, 6.72e-05 M corresponded to half-maximal inhibition (IC50). For the same molecule, where the note is “read-out: XOD activity (%)”, the activity at 20 µg/mL came out at 87.9%, the activity at 40 µg/mL stood at 67.7% and the activity at 80 µg/mL was 43.2%.

On to HDLPLPLPE [Peptide S3], for which the “XOD enzyme activity inhibition” value is recorded as “completely inhibited” and the half-inhibitory concentration (IC50) is 5.82e-05 M. For the setting “IC50(M), Table 5, molar”, this molecule came in with a 50% inhibitory concentration (IC50) of 5.82e-05 M. Under “read-out: XOD activity (%)”, the activity at 20 µg/mL stood at 87.2%, the activity at 40 µg/mL is 67.3% and the activity at 80 µg/mL stood at 46.9%.

Regarding TGPLGPSPGP [Peptide S2], the “XOD enzyme activity inhibition” value is listed as “completely inhibited” and the half-inhibitory concentration (IC50) is 0.000125 M. The same molecule returned an IC50 (IC50(M), Table 5, molar) of 0.000125 M. For the same molecule, under “read-out: XOD activity (%)”, the activity at 50 µg/mL turned out to be 80%, the activity at 100 µg/mL came out at 55.8% and the activity at 200 µg/mL came out at 17.9%.

On to VPSGPLGPEGPR [Peptide S1], for which half-maximal inhibition (IC50(M), Table 5, molar) (IC50) was put at 0.00275 M. The IC50 (same reaction system) is 0.00275 M. Where the note is “read-out: XOD activity (%)”, the activity at 2500 µg/mL is 57.6%, the activity at 5000 µg/mL stood at 36.7% and the activity at 10000 µg/mL is 26.9%.

(Values after patent US20210047366A1, “ANDRIAS DAVIDIANUS CARTILAGE PREPARATION” (TSINGHUA UNIVERSITY, priority 2017, published 2021).)
